# System: ob/ob mice
# Assay: Oral glucose tolerance test (OGTT) in ob/ob mice
# Assay type: in vivo
# Conditions: bi-daily 50 mg/kg during 28 days, AUC from -15 to 120 min
# Experimental: Ob/ob or obese mice are leptin-deficient mice that eat excessively and become profoundly obese, hyperinsulinemic and hyperglycemic. It is an animal model of type II diabetes. Such model can be used for oral glucose tolerance tests (OGTTs). A total of sixteen (16) male ob/ob mice (6 weeks of age) were obtained from Harlan. Upon arrival to the animal unit, mice were housed 4 per cage in rodent cages mounted with feeders containing regular chow. The mice were put in a 12/12h light-dark cycle (light from 0600-1800 h) with controlled temperature conditions (22-24° C.). Fed blood glucose and body-weight was measured on day −2 in the morning between 08:00 AM and 09:00 AM. Animals were randomized into 2 groups according to fed glucose levels (on day −2). […]
# Day 1 is the first day of dosing. […] At −15 min, blood glucose was measured (using a glucose analyzer) and animals were dosed with compounds of the invention or vehicle. At time point 0, blood glucose was measured again and glucose was administered by oral gavage (1 g/kg glucose). The blood glucose was then measured at time points 15, 30, 45, 60 and 120 minutes. […] The percentages of AUC inhibition induced by compounds of the invention were calculated as follows: % of AUC inhibition: [1−(AUC compound/AUC vehicle)]*100.
smiles,measurement,value
"COc1ccccc1-c1ccc(C(=O)N2[C@@H](c3ccccc3Cl)CC[C@H]2C(=O)O)cc1 [Compound 1, (2S,5R)-5-(2-chlorophenyl)-1-(2′-methoxy-[1,1′-biphenyl]-4-carbonyl)pyrrolidine-2-carboxylic acid]","% of AUC inhibition (blood glucose AUC, OGTT)",40%
